Results published in PubChem BioAssay AID256 (DTP/NCI, 2004).
Several values for one entry are separate records, joined by “and”; a condition that tells them apart may be missing. Equal values may be shown once. Toxic doses and inconclusive results are not listed. The calls were made as follows: active = survival T/C of 150% or more; inactive = T/C below 125% in these data. Residues, ends and D or L forms follow the SMILES beside them. *: point of attachment. Cbz = O=C(OCc1ccccc1)*

System: CD2F1 mice, L1210 leukemia ip, survival T/C
Test: NCI In Vivo Anticancer Drug Screen. Data for tumor model L1210 Leukemia (intraperitoneal) in CD2F1 (CDF1) mice
Settings: higher = longer survival
How it was run: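 Activity against a transplanted murine tumor was judged by comparing the compound group with a vehicle group. The outcome in the treated animals was divided by that in the controls.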

[1] = endpoint: mean survival time, dose: 50.0 mg/kg/injection, schedule: Q04DX002 (ip), vehicle: saline with Tween-80
[2] = endpoint: mean survival time, dose: 100.0 mg/kg/injection, schedule: Q04DX002 (ip), vehicle: saline with Tween-80
[3] = endpoint: mean survival time, dose: 100.0 mg/kg/injection, schedule: Q04DX003 (ip), vehicle: saline with Tween-80
[4] = endpoint: mean survival time, dose: 200.0 mg/kg/injection, schedule: Q04DX003 (ip), vehicle: saline with Tween-80
[5] = endpoint: mean survival time, dose: 75.0 mg/kg/injection, schedule: Q01DX001 (ip), vehicle: saline
[6] = endpoint: mean survival time, dose: 150.0 mg/kg/injection, schedule: Q01DX001 (ip), vehicle: saline
[7] = endpoint: mean survival time, dose: 100.0 mg/kg/injection, schedule: Q01DX009 (ip), vehicle: saline with Tween-80
[8] = endpoint: mean survival time, dose: 200.0 mg/kg/injection, schedule: Q01DX009 (ip), vehicle: saline with Tween-80
[9] = endpoint: mean survival time, dose: 400.0 mg/kg/injection, schedule: Q01DX009 (ip), vehicle: saline with Tween-80
[10] = endpoint: mean survival time, dose: 400.0 mg/kg/injection, schedule: Q04DX003 (ip), vehicle: saline with Tween-80
[11] = endpoint: mean survival time, dose: 12.5 mg/kg/injection, schedule: Q01DX009 (ip), vehicle: saline with Tween-80
[12] = endpoint: mean survival time, dose: 25.0 mg/kg/injection, schedule: Q01DX009 (ip), vehicle: saline with Tween-80
[13] = endpoint: mean survival time, dose: 50.0 mg/kg/injection, schedule: Q01DX009 (ip), vehicle: saline with Tween-80

Measured: T/C

c1ccc(Sc2ccncc2)cc1
inactive: endpoint: mean survival time, dose: 25.0 mg/kg/injection, schedule: Q04DX002 (ip), vehicle: saline with Tween-80 102 % of control | [1] 91 % of control | [2] 98 % of control and 105 % of control

CCOCc1cc(C)[nH]c(=O)c1C#N
inactive: [3] 96 % of control | [4] 98 % of control

Cc1cc(=O)oc2cc(O)ccc12
inactive: endpoint: mean survival time, dose: 100.0 mg/kg/injection, schedule: Q01DX001 (ip), vehicle: saline with Tween-80 94 % of control | endpoint: mean survival time, dose: 200.0 mg/kg/injection, schedule: Q01DX001 (ip), vehicle: saline with Tween-80 98 % of control | endpoint: mean survival time, dose: 400.0 mg/kg/injection, schedule: Q01DX001 (ip), vehicle: saline with Tween-80 87 % of control

CN1N(C(O)C(Cl)(Cl)Cl)C12CCCCC2 (configuration not stated)
inactive: endpoint: mean survival time, dose: 12.0 mg/kg/injection, schedule: Q01DX001 (ip), vehicle: carboxymethylcellulose (CMC) 94 % of control | endpoint: mean survival time, dose: 25.0 mg/kg/injection, schedule: Q01DX001 (ip), vehicle: carboxymethylcellulose (CMC) 97 % of control | endpoint: mean survival time, dose: 50.0 mg/kg/injection, schedule: Q01DX001 (ip), vehicle: carboxymethylcellulose (CMC) 95 % of control | endpoint: mean survival time, dose: 100.0 mg/kg/injection, schedule: Q01DX001 (ip), vehicle: carboxymethylcellulose (CMC) 95 % of control

CC(=O)Nc1ccsc1
inactive: endpoint: mean survival time, dose: 100.0 mg/kg/injection, schedule: Q01DX001 (ip), vehicle: saline 96 % of control | endpoint: mean survival time, dose: 200.0 mg/kg/injection, schedule: Q01DX001 (ip), vehicle: saline 95 % of control | endpoint: mean survival time, dose: 400.0 mg/kg/injection, schedule: Q01DX001 (ip), vehicle: saline 95 % of control

COC(=O)C(C)=O
inactive: endpoint: mean survival time, dose: 100.0 mg/kg/injection, schedule: Q04DX003 (ip), vehicle: saline 97 % of control | endpoint: mean survival time, dose: 200.0 mg/kg/injection, schedule: Q04DX003 (ip), vehicle: saline 100 % of control | endpoint: mean survival time, dose: 400.0 mg/kg/injection, schedule: Q04DX003 (ip), vehicle: saline 102 % of control

O=N[O-].O=N[O-].[Co].[NH-]CC[NH-].[NH-]CC[NH-]
inactive: [1] 93 % of control | [5] 103 % of control | [2] 100 % of control | [6] 113 % of control | endpoint: mean survival time, dose: 200.0 mg/kg/injection, schedule: Q04DX002 (ip), vehicle: saline with Tween-80 96 % of control

CCc1ccc(NC(=O)c2ccccc2C(=O)O)cc1
inactive: [7] 102 % of control | [3] 101 % of control | [8] 98 % of control | [4] 97 % of control | [9] 105 % of control | [10] 97 % of control

C[n+]1cccc(/C=C/C(=O)Nc2ccccc2)c1
inactive: [3] 99 % of control | [4] 87 % of control

NC(=O)CNC(=O)CNC(=O)CNC(=O)OCc1ccccc1 (Cbz-Gly-Gly-Gly-NH2)
inactive: [11] 105 % of control | [12] 102 % of control | [13] 95 % of control

C=CCNc1n[nH]c(=S)s1
inactive: [3] 100 % of control | [4] 96 % of control | [10] 105 % of control

Cc1ccccc1SCCC(=O)O
inactive: [11] 101 % of control | [12] 102 % of control | [13] 101 % of control | [7] 97 % of control

Nc1ncnc2nc(C(O)C(O)C(O)C(O)CO)[nH]c12 (configuration not stated)
inactive: endpoint: median survival time, dose: 12.5 mg/kg/injection, schedule: Q01DX005 (ip), vehicle: distilled water + Tween-80 98 % of control | endpoint: median survival time, dose: 25.0 mg/kg/injection, schedule: Q01DX005 (ip), vehicle: distilled water + Tween-80 98 % of control | endpoint: median survival time, dose: 50.0 mg/kg/injection, schedule: Q01DX005 (ip), vehicle: distilled water + Tween-80 100 % of control | endpoint: median survival time, dose: 100.0 mg/kg/injection, schedule: Q01DX005 (ip), vehicle: distilled water + Tween-80 97 % of control | endpoint: median survival time, dose: 200.0 mg/kg/injection, schedule: Q01DX005 (ip), vehicle: distilled water + Tween-80 98 % of control

C=CC1OC2CCCCC2O1 (configuration not stated)
inactive: endpoint: mean survival time, dose: 100.0 mg/kg/injection, schedule: Q01DX001 (ip), vehicle: acetone 104 % of control

Cc1cccc2c1CCC(OC(=O)c1cc([N+](=O)[O-])cc([N+](=O)[O-])c1)C2 (configuration not stated)
inactive: [7] 92 % of control | endpoint: mean survival time, dose: 100.0 mg/kg/injection, schedule: Q04DX003 (ip), vehicle: acetone 98 % of control | endpoint: mean survival time, dose: 200.0 mg/kg/injection, schedule: Q04DX003 (ip), vehicle: acetone 108 % of control | [4] 89 % of control | [9] 97 % of control | endpoint: mean survival time, dose: 400.0 mg/kg/injection, schedule: Q04DX003 (ip), vehicle: acetone 101 % of control

COc1ccc(OC)c(NC(=O)OCC(F)(F)F)c1
inactive: [13] 97 % of control | [8] 103 % of control

CCC(COC(=O)c1ccc([N+](=O)[O-])cc1)NC1CCCCC1 (configuration not stated)
inactive: [5] 102 % of control | [6] 103 % of control | endpoint: mean survival time, dose: 300.0 mg/kg/injection, schedule: Q01DX001 (ip), vehicle: saline 101 % of control

CC([NH-])C(=O)O.[Cl][Pt][Cl] (configuration not stated)
inactive: endpoint: mean survival time, dose: 25.0 mg/kg/injection, schedule: Q04DX003 (ip), vehicle: saline 121 % of control | endpoint: mean survival time, dose: 50.0 mg/kg/injection, schedule: Q04DX003 (ip), vehicle: saline 110 % of control

CCCCCCCCCCCC(=O)NC1CC(O[C@H]2C[C@](O)(C(=O)CO)Cc3c(O)c4c(c(O)c32)C(=O)c2c(OC)cccc2C4=O)OC(C)C1O (some centres not stated)
inactive: endpoint: mean survival time, dose: 1.5 mg/kg/injection, schedule: Q01DX009 (ip), vehicle: saline with Tween-80 108 % of control | endpoint: mean survival time, dose: 1.5 mg/kg/injection, schedule: Q01DX009 (ip), vehicle: saline 104 % of control | endpoint: mean survival time, dose: 3.0 mg/kg/injection, schedule: Q01DX009 (ip), vehicle: saline with Tween-80 98 % of control | endpoint: mean survival time, dose: 3.0 mg/kg/injection, schedule: Q01DX009 (ip), vehicle: saline 113 % of control | endpoint: mean survival time, dose: 6.0 mg/kg/injection, schedule: Q01DX009 (ip), vehicle: saline with Tween-80 105 % of control | endpoint: mean survival time, dose: 6.0 mg/kg/injection, schedule: Q01DX009 (ip), vehicle: saline 113 % of control | endpoint: mean survival time, dose: 6.25 mg/kg/injection, schedule: Q01DX009 (ip), vehicle: distilled water + Tween-80 105 % of control | endpoint: mean survival time, dose: 12.0 mg/kg/injection, schedule: Q01DX009 (ip), vehicle: saline with Tween-80 107 % of control | endpoint: mean survival time, dose: 12.5 mg/kg/injection, schedule: Q01DX009 (ip), vehicle: distilled water + Tween-80 105 % of control | endpoint: mean survival time, dose: 24.0 mg/kg/injection, schedule: Q01DX009 (ip), vehicle: saline with Tween-80 112 % of control | endpoint: mean survival time, dose: 24.0 mg/kg/injection, schedule: Q01DX009 (ip), vehicle: saline 116 % of control | endpoint: mean survival time, dose: 25.0 mg/kg/injection, schedule: Q01DX009 (ip), vehicle: distilled water + Tween-80 112 % of control | endpoint: mean survival time, dose: 48.0 mg/kg/injection, schedule: Q01DX009 (ip), vehicle: saline with Tween-80 97 % of control | endpoint: mean survival time, dose: 50.0 mg/kg/injection, schedule: Q01DX009 (ip), vehicle: distilled water + Tween-80 116 % of control

COC(=O)c1ccc(C=O)cc1
inactive: endpoint: mean survival time, dose: 100.0 mg/kg/injection, schedule: Q04DX003 (ip), vehicle: Klucel (hydroxypropylcellulose) (HPC) 87 % of control | endpoint: mean survival time, dose: 200.0 mg/kg/injection, schedule: Q04DX003 (ip), vehicle: Klucel (hydroxypropylcellulose) (HPC) 102 % of control | endpoint: mean survival time, dose: 400.0 mg/kg/injection, schedule: Q04DX003 (ip), vehicle: Klucel (hydroxypropylcellulose) (HPC) 94 % of control

N#C/C(=C\c1cc(Cl)cc(Cl)c1O)C(/C(C#N)=C/c1cc(Cl)cc(Cl)c1O)c1ccc2c(c1)OCO2 (configuration not stated)
inactive: [7] 101 % of control | [3] 101 % of control | [8] 94 % of control | [4] 97 % of control | [9] 105 % of control | [10] 103 % of control

COc1ccc2c(c1)n([O-])c1ccccc1[n+]2=O
inactive: endpoint: median survival time, dose: 12.5 mg/kg/injection, schedule: Q01DX005 (ip), vehicle: saline with Tween-80 116 % of control | endpoint: median survival time, dose: 12.56 mg/kg/injection, schedule: Q01DX005 (ip), vehicle: saline with Tween-80 115 % of control | endpoint: median survival time, dose: 21.6 mg/kg/injection, schedule: Q01DX005 (ip), vehicle: saline with Tween-80 115 % of control | endpoint: median survival time, dose: 25.0 mg/kg/injection, schedule: Q01DX005 (ip), vehicle: saline with Tween-80 116 % of control | endpoint: median survival time, dose: 50.0 mg/kg/injection, schedule: Q01DX005 (ip), vehicle: saline with Tween-80 117 % of control | endpoint: median survival time, dose: 166.67 mg/kg/injection, schedule: Q01DX005 (ip), vehicle: saline with Tween-80 123 % of control
active: endpoint: median survival time, dose: 100.0 mg/kg/injection, schedule: Q01DX005 (ip), vehicle: saline with Tween-80 300 % of control
120 % of control and 287 % of control: endpoint: median survival time, dose: 60.0 mg/kg/injection, schedule: Q01DX005 (ip), vehicle: saline with Tween-80
222 % of control and 112 % of control: endpoint: median survival time, dose: 36.0 mg/kg/injection, schedule: Q01DX005 (ip), vehicle: saline with Tween-80
